Measurements taken from PMC6978800, “FAMIN Is a Multifunctional Purine Enzyme Enabling the Purine Nucleotide Cycle” (Cell, 2020).

Legend:
[1] = molecular target: T1, YfiH (Escherichia coli, UniProt P33644); experiment: LC-MS of inosine and adenine; format: biochemical; details: 10 μM substrate, PBS pH 7.4, 37°C, 1 h
T1 construct: gene pgeF; synthetic gene in pPSG-IBA105 (Strep-tag); expressed in E. coli BL21(DE3); StrepTrap and size exclusion
T1 sequence (P33644 1-243): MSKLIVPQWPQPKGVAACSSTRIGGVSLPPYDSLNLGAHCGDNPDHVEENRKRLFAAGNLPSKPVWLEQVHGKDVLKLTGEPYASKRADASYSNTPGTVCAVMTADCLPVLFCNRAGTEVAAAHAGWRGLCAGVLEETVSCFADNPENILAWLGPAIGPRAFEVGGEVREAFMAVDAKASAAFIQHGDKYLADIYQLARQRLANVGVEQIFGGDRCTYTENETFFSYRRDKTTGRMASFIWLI

[2] = molecular target: T2, YlmD (Geobacillus stearothermophilus, UniProt P84138); experiment: LC-MS of inosine and adenine; format: biochemical; details: 10 μM substrate, PBS pH 7.4, 37°C, 1 h
T2 construct: gene pgeF; synthetic gene in pPSG-IBA105 (Strep-tag); expressed in E. coli BL21(DE3); StrepTrap and size exclusion
T2 sequence (P84138 1-274): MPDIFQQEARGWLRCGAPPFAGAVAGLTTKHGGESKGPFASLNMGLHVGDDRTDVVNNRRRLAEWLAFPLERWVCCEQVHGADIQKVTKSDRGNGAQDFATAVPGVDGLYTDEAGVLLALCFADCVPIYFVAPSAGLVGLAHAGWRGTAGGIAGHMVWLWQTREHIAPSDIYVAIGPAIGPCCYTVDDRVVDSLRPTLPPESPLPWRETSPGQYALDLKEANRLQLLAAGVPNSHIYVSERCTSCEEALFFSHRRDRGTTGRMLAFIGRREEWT

[3] = molecular target: T3, FAMIN^254I (Homo sapiens, UniProt Q8IV20); experiment: LC-MS product quantitation, Michaelis-Menten; format: biochemical; details: PBS pH 7.4, 37°C; phosphate as co-substrate of phosphorolysis; read-out: apparent Km
T3 construct: gene LACC1; full-length, N-terminal Twin-Strep-tag with TEV site, tag cut (kept in select experiments); expressed in HEK293T; monomer; 430 residues
T3 sequence (Q8IV20 1-430): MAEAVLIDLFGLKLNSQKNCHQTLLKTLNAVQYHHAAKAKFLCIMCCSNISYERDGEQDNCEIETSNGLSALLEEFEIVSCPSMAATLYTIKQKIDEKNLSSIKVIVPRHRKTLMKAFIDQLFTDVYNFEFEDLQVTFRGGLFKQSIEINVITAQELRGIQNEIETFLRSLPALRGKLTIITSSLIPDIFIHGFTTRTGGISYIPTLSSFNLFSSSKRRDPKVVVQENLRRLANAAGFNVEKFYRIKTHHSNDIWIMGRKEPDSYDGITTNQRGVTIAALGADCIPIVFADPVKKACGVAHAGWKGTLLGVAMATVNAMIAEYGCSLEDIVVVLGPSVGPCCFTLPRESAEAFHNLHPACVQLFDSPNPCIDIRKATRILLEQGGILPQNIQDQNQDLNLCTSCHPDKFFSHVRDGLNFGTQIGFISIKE

[4] = molecular target: T2, YlmD; experiment: X-ray crystal structure, soaked crystals, […] Å; format: binding; details: soak with 18.7 mM inosine, 0.5 mM sodium phosphate, 0.5 mM zinc sulfate, pH 7.5; active site, ribose partially hydrolyzed or disordered
[5] = molecular target: T2, YlmD; experiment: LC-MS of adenine; format: biochemical; details: 10 μM substrate, PBS pH 7.4, 37°C, 1 h

| SMILES | LC-MS of inosine and adenine [1] | LC-MS of inosine and adenine [2] | Km [3] [µM] | X-ray crystal structure, soaked crystals, 1.2 Å [4] | LC-MS of adenine [5] |
| --- | --- | --- | --- | --- | --- |
| Nc1ncnc2c1ncn2[C@@H]1O[C@H](CO)[C@@H](O)[C@H]1O [Adenosine] | YlmD and YfiH metabolized adenosine to inosine and adenine, MTA to adenine | YlmD and YfiH metabolized adenosine to inosine and adenine, MTA to adenine | 36 |  |  |
| O=c1[nH]cnc2c1ncn2[C@@H]1O[C@H](CO)[C@@H](O)[C@H]1O [Inosine] |  |  | 41 | unambiguously identifying the purine ring of a bound inosine molecule |  |
| CSC[C@H]1O[C@@H](n2cnc3c(N)ncnc32)[C@H](O)[C@@H]1O [S-methyl-5′-thioadenosine] |  |  | 1 |  | YlmD and YfiH metabolized adenosine to inosine and adenine, MTA to adenine |
